Results reported in patent US12485110B2, “Use of ergothioneine for extending lifespan or improving healthspan” (NANJING NUTRABUILDING BIO-TECH CO., LTD., priority 2022, dated 2025).
Entries after “also recorded” stand apart in the source; their conditions may differ.

Columns and labels:
C. elegans [1] = assay: Movement and healthspan analysis (worm activity, morphology, circularity); assay type: in vivo; conditions: 0.1 mM
Excerpt: Worm movement was tracked from the images acquired by the ALM during the lifespan assay. Worm size and movement features were extracted and analyzed using custom software.
To measure healthspan, active worms were identified using the ALM scanner images from the lifespan assay (see Example 2). The worms' spatial location on the plate and their morphology were quantified throughout their lifespan to assess healthspan.
Worm Activity serves as a proxy for animal health. Changes in spatial distribution of the worms between time points is used to derive aggregate movement for the population over time. Worm Activity is described by two complementary measurements of aggregate movement, Centroid Distance and Spatial Distribution: • Centroid Distance calculates a geometric center for each individual worm, and then measures the minimum collective distance that a group of worms moved between time points. It achieves measurement of the changes in spatial distribution between time-points. • Spatial Distribution uses changes in worm contours between time points to measure the changes in the spatial distribution of the worms' bodies. The normalized distribution of these distances in the population provides a measure of how much the group of worms altered their positions and posture on the plate between two time-points.
For both of these Activity metrics, a plot with higher numbers indicates good health, and all measures are normalized to fall between 0 and 1.
Worm morphology is measured from the worm contours detected in the images. In the process of aging, worms become shorter and stouter over time and their shape is an indicator of their overall health and biological age. The Length is calculated from the central spline fitted to the worm contour and Width is measured from each worm's widest point. The worms' posture also changes with age as they lose the ability to maintain an elongated position. Average Circularity measures how close the shape and posture come to being enclosed by a circle.
Each of these measures are obtained by averaging data for all active worms detected on a plate, then averaging across different replicate plates of the same condition. All measurements are based on worms that are still alive and moving at the time of quantification. All measures start when worms are placed on the scanner at day 3 of adulthood.
Average Circularity. The Average Circularity Assay indicates worm heath by describing how closely the shape and posture of the worms is enclosed within a circle. Healthy, active worms maintain an elongated, albeit sinusoidal posture. As unhealthy and aged worms lose muscle function, they increasingly adopt a curled, bunched, or folded state in addition to a stout and wrinkled morphology.

C. elegans [2] = assay: Lifespan assay (Automated Lifespan Machine); assay type: in vivo
Excerpt: N2 (Bristol) wild type strain has been used in this application.
To prevent chemical modification or metabolism of the test article by the food bacteria, worms were fed on a lawn of UV-killed bacteria (UV-i bacteria). An overnight culture of E. coli strain WP-2 was pelleted, washed, filtered, and irradiated. A suspension of UV-i bacteria was spotted on NGM agar containing Streptomycin to inhibit the growth of contaminating bacteria. The quantity and distribution of food bacteria were calibrated to ensure adequate access to food for the duration of assay while maintaining visibility of the worms.
The ALM used herein is based on the Caenorhabditis elegans lifespan machine published by Stroustrup et. al (Stroustrup, N. et al. The Caenorhabditis elegans Lifespan Machine. Nat Methods 10, 665-670 (2013)), with proprietary modifications to improve temperature stability and image acquisition. The scanner unit consists of a modified EPSON V850 and images are processed and analyzed using the ALM software (see id.). The machine time-of-death calls are trained and validated using the “storyboarding” feature of the ALM software.
The lifespan assay was designed and performed according to published and validated methods (Amrit, F. R. G., Ratnappan, R., Keith, S. A. & Ghazi, A. The C. elegans lifespan assay toolkit. Methods 68, 465-475 (2014)), using a modified version of the Automated Lifespan Machine (Stroustrup, N. et al. The Caenorhabditis elegans Lifespan Machine. Nat Methods 10, 665-670 (2013)). Worms were age synchronized by bleaching and eggs were plated directly onto NGM agar seeded with UV-i bacteria (Day 1, hatch). On Day 3, when the worms had reached the late L4 stage, they were transferred to dishes containing 100 μM 5-Fluorodeoxyuridine (FUdR) to suppress progeny. On day 5, the worms were washed off the dishes, and 30-50 worms were plated on each scanner dish. Plates were immobilized inverted on the bed of an Automated Lifespan Machine which scanned two images per hour of the plates continuously for the next 40 days.
Time of death calls exported from the ALM software was analyzed and plotted using the Lifelines software package developed by Cam Davidson-Pilon et. al (Lifelines Version: v0.25.9). Additional analysis performed using the OASIS2 analysis software (Seong Kyu Han et. al. OASIS 2: online application for survival analysis 2 with features for the analysis of maximal lifespan and healthspan in aging research. Oncotarget. 7:56147-56152. (2016)).
The lifespan assay was initiated by expanding all replicate groups to more than 1000 worms, then synchronizing by bleaching and allowing larval worms to hatch and arrest. To eliminate the effect of bacterial metabolism and growth on lifespan of C. elegans (wild type, and not over express β-amyloid peptide) worms, synchronized worms were only exposed to dead food bacteria. To suppress progeny, worms were transferred to media containing 5-Fluorodeoxyuridine (FUdR) within 54-60 hours post-plating. Worms were inspected 24 and 48 hours after this transfer to confirm infertility. Finally, the worms were inspected for general health and morphology before transferring to scanner plates. The scanner plates were incubated for an additional 2 days and inspected again before loading onto scanners.
To obtain high-resolution lifespan data and eliminate confounding factors such as worm handling and operator bias, lifespan data was collected using an Automated Lifespan Machine (ALM) (Stroustrup, N. et al. The Caenorhabditis elegans Lifespan Machine. Nat Methods 10, 665-670 (2013)). Three biological replicates, derived from synchronizing three independently maintained lines of N2 worms, were distributed across instruments. Images of the worms were then collected for the next 35 days with no interruption or manipulations. Some plates were excluded after quality checks, but plate number and worm count for all replicates exceeded the threshold for statistical significance (Table 1, row 1).

## Oc1ccc(C=Cc2cc(O)cc(O)c2)cc1 [Resveratrol, reference compound]
C. elegans [1]; late life
  Average circularity / posture (FIG. 7): maintained a more elongated posture well into late life
C. elegans [1]; over the duration of lifespan
  Aggregate movement (Centroid Distance and Spatial Distribution, FIGS. 5A-5B): more vigorous movement
C. elegans [1]; over the lifespan
  Worm morphology (size, FIGS. 6A-6C): slightly smaller earlier in the assay but remained larger in the late life stages
C. elegans [2]; 0.1 mM
  Age in days at 25% mortality: 21.46 days
  Age in days at 50% mortality: 27.29 days
  Age in days at 75% mortality: 31.13 days
  Age in days at 90% mortality: 35.89 days
  Age in days at 100% mortality: 40.85 days
C. elegans [2]; 0.1 mM positive control
  Lifespan / survival relative to vehicle control (in words): significant positive increase in lifespan; also recorded: higher survival than the vehicle control at all timepoints
C. elegans [2]; 0.1 mM, 95th percentile of lifespans
  Maximum lifespan: 37.3 days
C. elegans [2]; 0.1 mM, N2 wild type, day 0 = day 1 of adulthood
  Median lifespan: 27.3 days
C. elegans [2]; 0.1 mM, area under survival curve
  Mean lifespan: 26.3 days
